Measurements from PubChem BioAssay AID330 (DTP/NCI, 2004).
Several values for one entry are separate records, joined by “and”; a condition that tells them apart may be missing. Equal values may be shown once. Inconclusive results and toxic doses are left out.

Test system: P388 leukemia ip, CD2F1 mice, survival T/C
Assay: NCI In Vivo Anticancer Drug Screen. Data for tumor model P388 Leukemia (intraperitoneal) in CD2F1 (CDF1) mice
Conditions: endpoint: median survival time, higher = longer survival
Method in brief: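 Mice carrying the transplanted tumor received test compound or vehicle. Survival was recorded in each group, and the value is the treated-group measurement divided by that of the vehicle-treated control group.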

[1] = dose: 50.0 mg/kg/injection, schedule: Q01DX009 (ip), vehicle: saline with Tween-80
[2] = dose: 100.0 mg/kg/injection, schedule: Q01DX009 (ip), vehicle: saline with Tween-80
[3] = dose: 200.0 mg/kg/injection, schedule: Q01DX009 (ip), vehicle: saline with Tween-80
[4] = dose: 400.0 mg/kg/injection, schedule: Q01DX009 (ip), vehicle: saline with Tween-80
[5] = dose: 25.0 mg/kg/injection, schedule: Q01DX005 (ip), vehicle: Klucel (hydroxypropylcellulose) (HPC)
[6] = dose: 50.0 mg/kg/injection, schedule: Q01DX005 (ip), vehicle: Klucel (hydroxypropylcellulose) (HPC)
[7] = dose: 100.0 mg/kg/injection, schedule: Q01DX005 (ip), vehicle: Klucel (hydroxypropylcellulose) (HPC)
[8] = dose: 60.0 mg/kg/injection, schedule: Q01DX005 (ip), vehicle: saline with Tween-80
[9] = dose: 120.0 mg/kg/injection, schedule: Q01DX005 (ip), vehicle: saline with Tween-80
[10] = dose: 240.0 mg/kg/injection, schedule: Q01DX005 (ip), vehicle: saline with Tween-80
[11] = dose: 12.5 mg/kg/injection, schedule: Q01DX009 (ip), vehicle: saline
[12] = dose: 25.0 mg/kg/injection, schedule: Q01DX009 (ip), vehicle: saline
[13] = dose: 50.0 mg/kg/injection, schedule: Q01DX009 (ip), vehicle: saline
[14] = dose: 50.0 mg/kg/injection, schedule: Q01DX005 (ip), vehicle: saline with Tween-80
[15] = dose: 100.0 mg/kg/injection, schedule: Q01DX005 (ip), vehicle: saline with Tween-80
[16] = dose: 200.0 mg/kg/injection, schedule: Q01DX005 (ip), vehicle: saline with Tween-80
[17] = dose: 100.0 mg/kg/injection, schedule: Q01DX009 (ip), vehicle: saline
[18] = dose: 200.0 mg/kg/injection, schedule: Q01DX009 (ip), vehicle: saline
[19] = dose: 100.0 mg/kg/injection, schedule: Q04DX003 (ip), vehicle: saline
[20] = dose: 200.0 mg/kg/injection, schedule: Q04DX003 (ip), vehicle: saline
[21] = dose: 400.0 mg/kg/injection, schedule: Q04DX003 (ip), vehicle: saline

C[C@]12CCC(=O)C=C1CC[C@@H]1[C@@H]2[C@@H](O)C[C@@]2(C)[C@H]1CC[C@]2(O)C(=O)COC(=O)c1ccc([N+](=O)[O-])cc1Cl
T/C [1]: 109 % of control
T/C [2]: 100 % of control
T/C [3]: 109 % of control and 86 % of control
T/C [4]: 86 % of control

C[Si](C)(CCCOCC1CO1)O[Si](C)(C)CCCOCC1CO1 (stereo not drawn)
T/C [2]: 100 % of control
T/C [3]: 101 % of control
T/C [4]: 114 % of control

CN(C(=O)c1ccccc1)C1CCCC(=O)CC1 (stereo not drawn)
T/C [5]: 105 % of control
T/C [6]: 100 % of control
T/C [7]: 99 % of control
T/C (dose: 200.0 mg/kg/injection, schedule: Q01DX005 (ip), vehicle: Klucel (hydroxypropylcellulose) (HPC)): 97 % of control

Cc1cc(OC(N)=S)cc(C)c1Cl
T/C (dose: 50.0 mg/kg/injection, schedule: Q01DX009 (ip), vehicle: Klucel (hydroxypropylcellulose) (HPC)): 101 % of control
T/C (dose: 100.0 mg/kg/injection, schedule: Q01DX009 (ip), vehicle: Klucel (hydroxypropylcellulose) (HPC)): 100 % of control
T/C (dose: 200.0 mg/kg/injection, schedule: Q01DX009 (ip), vehicle: Klucel (hydroxypropylcellulose) (HPC)): 101 % of control

N=C(N)n1ncc2c1CCC/C2=N/N=C(N)N
T/C [8]: 99 % of control
T/C [9]: 96 % of control
T/C [10]: 103 % of control

Cc1c2ccncc2c(C)c2c1[nH]c1ccc(-c3ccccc3)cc12
T/C (dose: 20.0 mg/kg/injection, schedule: Q01DX001 (ip), vehicle: saline with Tween-80): 102 % of control
T/C (dose: 40.0 mg/kg/injection, schedule: Q01DX001 (ip), vehicle: saline with Tween-80): 100 % of control
T/C (dose: 80.0 mg/kg/injection, schedule: Q01DX001 (ip), vehicle: saline with Tween-80): 99 % of control

CCCOc1cncc(C)n1
T/C [11]: 95 % of control
T/C [12]: 87 % of control
T/C [13]: 101 % of control and 97 % of control

CCCCCCCCC(=O)N1SC(NC(=O)OC)=Nc2ccccc21
T/C (dose: 50.0 mg/kg/injection, schedule: Q01DX005 (ip), vehicle: acetone): 98 % of control
T/C (dose: 100.0 mg/kg/injection, schedule: Q01DX005 (ip), vehicle: acetone): 93 % of control
T/C (dose: 200.0 mg/kg/injection, schedule: Q01DX005 (ip), vehicle: acetone): 111 % of control

O=C(N[C@H](CO)[C@H]1CC(Br)=NO1)C(Cl)(Cl)Cl
T/C (dose: 11.25 mg/kg/injection, schedule: Q01DX005 (ip), vehicle: distilled water + Tween-80): 102 % of control
T/C (dose: 22.5 mg/kg/injection, schedule: Q01DX005 (ip), vehicle: distilled water + Tween-80): 105 % of control
T/C (dose: 45.0 mg/kg/injection, schedule: Q01DX005 (ip), vehicle: distilled water + Tween-80): 107 % of control
T/C (dose: 90.0 mg/kg/injection, schedule: Q01DX005 (ip), vehicle: distilled water + Tween-80): 112 % of control

CC1(C)CC(O)C2OC2C1 (stereo not drawn)
T/C [14]: 101 % of control
T/C [15]: 108 % of control
T/C [16]: 106 % of control

CCCn1c2ccccc2c2c(C)c3cnccc3c(C)c21
T/C (dose: 12.5 mg/kg/injection, schedule: Q04DX002 (ip), vehicle: saline with Tween-80): 100 % of control
T/C (dose: 25.0 mg/kg/injection, schedule: Q04DX002 (ip), vehicle: saline with Tween-80): 97 % of control
T/C (dose: 50.0 mg/kg/injection, schedule: Q04DX002 (ip), vehicle: saline with Tween-80): 94 % of control
T/C (dose: 100.0 mg/kg/injection, schedule: Q04DX002 (ip), vehicle: saline with Tween-80): 105 % of control

CC(=O)C(C)P(=O)(O)O (stereo not drawn)
T/C [13]: 99 % of control
T/C [17]: 101 % of control
T/C [18]: 106 % of control

COc1ccc2c(c1)CC[C@@H]1[C@@H]2CC[C@@]2(C)[C@H]1CC[C@@]2(O)C(F)=C(F)F
T/C (dose: 100.0 mg/kg/injection, schedule: Q04DX003 (ip), vehicle: saline with Tween-80): 88 % of control
T/C (dose: 200.0 mg/kg/injection, schedule: Q04DX003 (ip), vehicle: saline with Tween-80): 88 % of control

O=C(/C=C/c1cccc(Cl)c1)c1ccc(Cl)cc1
T/C (dose: 30.0 mg/kg/injection, schedule: Q01DX005 (ip), vehicle: saline with Tween-80): 102 % of control
T/C [8]: 100 % of control
T/C [9]: 100 % of control
T/C [10]: 110 % of control

O=C(NCc1ccco1)Nc1c(Cl)cc(Cl)cc1Cl
T/C [8]: 103 % of control
T/C [9]: 100 % of control
T/C [10]: 100 % of control

CCc1cc2nc3c(=O)[nH]c(=O)nc-3n(CCN(CCO)CCO)c2cc1CC
T/C [8]: 99 % of control
T/C [9]: 116 % of control
T/C [10]: 108 % of control

O=[N+]([O-])c1ccc(Sc2c3ccccc3nc3ccccc23)nc1
T/C (dose: 25.0 mg/kg/injection, schedule: Q01DX005 (ip), vehicle: saline with Tween-80): 108 % of control
T/C [14]: 100 % of control
T/C [15]: 106 % of control
T/C [16]: 100 % of control

OCCN1CCOC(O)(c2cccc(C(F)(F)F)c2)C1 (stereo not drawn)
T/C [14]: 101 % of control
T/C [15]: 95 % of control
T/C [16]: 96 % of control

O=C(Oc1ccc[nH]c1=O)c1cc([N+](=O)[O-])cc([N+](=O)[O-])c1
T/C [11]: 99 % of control and 100 % of control
T/C [12]: 98 % of control and 107 % of control
T/C [13]: 99 % of control and 103 % of control
T/C [17]: 100 % of control
T/C [18]: 98 % of control and 101 % of control
T/C (dose: 400.0 mg/kg/injection, schedule: Q01DX009 (ip), vehicle: saline): 100 % of control and 109 % of control

C=C[CH2][Sn]([CH2]C)([CH2]C)[CH2]C=C
T/C (dose: 12.5 mg/kg/injection, schedule: Q01DX005 (ip), vehicle: saline): 107 % of control
T/C (dose: 25.0 mg/kg/injection, schedule: Q01DX005 (ip), vehicle: saline): 114 % of control
T/C (dose: 100.0 mg/kg/injection, schedule: Q01DX005 (ip), vehicle: saline): 154 % of control

CC(=O)NC(Cc1ccccc1F)C(=O)O (stereo not drawn)
T/C [13]: 94 % of control
T/C [17]: 94 % of control
T/C [18]: 97 % of control

O=C1C[CH]([Ge](=[O])[O][Ge](=[O])[CH]2CC(=O)NC(=O)N2)NC(=O)N1 (stereo not drawn)
T/C (dose: 15.0 mg/kg/injection, schedule: Q01DX005 (ip), vehicle: water): 97 % of control
T/C (dose: 30.0 mg/kg/injection, schedule: Q01DX005 (ip), vehicle: water): 99 % of control
T/C (dose: 60.0 mg/kg/injection, schedule: Q01DX005 (ip), vehicle: water): 111 % of control
T/C (dose: 120.0 mg/kg/injection, schedule: Q01DX005 (ip), vehicle: water): 103 % of control and 118 % of control
T/C (dose: 240.0 mg/kg/injection, schedule: Q01DX005 (ip), vehicle: water): 95 % of control

CCOP(=O)(CSc1ccccc1)NC1CCCCC1 (stereo not drawn)
T/C [5]: 94 % of control
T/C [6]: 94 % of control
T/C [7]: 88 % of control

COC(CN(C)CC(OC)OC)OC
T/C [19]: 95 % of control
T/C [20]: 100 % of control
T/C [21]: 100 % of control

c1ccc(-c2cnc3nc4[nH]c5ccccc5c4nn23)cc1
T/C [14]: 98 % of control
T/C [15]: 92 % of control
T/C [16]: 98 % of control

O=[N+]([O-])c1cnc(Sc2ncc([N+](=O)[O-])cn2)nc1
T/C (dose: 60.0 mg/kg/injection, schedule: Q01DX005 (ip), vehicle: saline): 99 % of control
T/C (dose: 120.0 mg/kg/injection, schedule: Q01DX005 (ip), vehicle: saline): 102 % of control
T/C (dose: 240.0 mg/kg/injection, schedule: Q01DX005 (ip), vehicle: saline): 99 % of control

C(/C=C/c1cc2cc(C3=NCCN3)ccc2o1)=C\c1ccc(C2=NCCN2)cc1
T/C [19]: 114 % of control
T/C [20]: 119 % of control
T/C [21]: 118 % of control

COC1CC(O)OC1C(NC(C)=O)SC12CC3CC(CC(C3)C1)C2 (stereo not drawn)
T/C (dose: 100.0 mg/kg/injection, schedule: Q04DX003 (ip), vehicle: Klucel (hydroxypropylcellulose) (HPC)): 104 % of control
T/C (dose: 200.0 mg/kg/injection, schedule: Q04DX003 (ip), vehicle: Klucel (hydroxypropylcellulose) (HPC)): 106 % of control
T/C (dose: 400.0 mg/kg/injection, schedule: Q04DX003 (ip), vehicle: Klucel (hydroxypropylcellulose) (HPC)): 104 % of control

Ic1ccc(N=Cc2cccs2)cc1
T/C [1]: 106 % of control
T/C [2]: 108 % of control
T/C [3]: 123 % of control
T/C [4]: 115 % of control
